Reference: ChEMBL document CHEMBL6134843, “HDAC11 Inhibition as a Potential Therapeutic Strategy for AML: Target Identification, Lead Discovery, Antitumor Potency, and Mechanism Investigation” (J Med Chem, 2025)
Activity calls are given as the source filed them. No cut-off for these calls is given here.

How the values were obtained:
[1] = Induction of cell apoptosis in human OCI-AML-3 cells at 5 uM incubated for 48 hrs by Annexin V/DAPI staining based flow cytometry analysis relative to control; type: functional
[2] = tested on: Acute myeloid leukemic cell; experiment: Induction of ferroptosis in human Acute myeloid leukemic cells assessed as upregulation of TFRC protein level at 2.5 to 10 uM by Western blot analysis; type: functional, cell-based; conditions: dose 2.5-10 µM
OCI-AML2 [3] = experiment: Cytotoxicity against human OCI-AML2 cells assessed as cell growth inhibition at 5 uM incubated for 24 to 48 hrs by cell counting assay; type: functional, cell-based; conditions: time 24-48 hrs
U-937 [4] = experiment: Effect on CCNB1 gene expression in human U-937 cells at 10 uM incubated for 48 hrs by RT-qPCR; type: functional, cell-based
[5] = Bioavailability in ICR(CD-1) mouse at 50 mg/kg, ip treated up to 24 hrs by LC-MS/MS analysis; type: ADME, organism-based; conditions: in vivo
U-937 [6] = experiment: Induction of ferroptosis in human U-937 cells assessed as increase in ferrous ion accumulation at 100 uM incubated for 48 hrs by RhoNox-1 staining based flow cytometry analysis; type: functional, cell-based
U-937 [7] = experiment: Induction of ferroptosis in human U-937 cells assessed as increase in cellular ROS accumulation at 10 uM in presence of Zinc protoporphyrin by flow cytometry analysis; type: functional, cell-based
THP-1 = experiment: Antiproliferative activity against human THP-1 cells assessed as cell growth inhibition incubated for 2 days by CCK-8 assay; conditions: THP-1, 48 h
U-937 [8] = experiment: Induction of ferroptosis in human U-937 cells assessed as upregulation of HMOX1 level at 10 uM in presence of Zinc protoporphyrin by flow cytometry analysis; type: functional, cell-based
[9] = Antitumor activity against mouse MLL-AF9 cells allografted in female C57BL/6 mouse model assessed as GFP positive leukemic cells in peripheral blood at 50 mg/kg, ip administered once daily for 32 days in presence of cytarabine by FITC staining based analysis (reference value: 72.5 %); type: functional; conditions: time 32 day
OCI-AML2 [10] = experiment: Induction of ferroptosis in human OCI-AML2 cells assessed as increase in ferrous ion accumulation at 5 uM incubated for 48 hrs by RhoNox-1 staining based flow cytometry analysis; type: functional, cell-based
MLL-AF9 [11] = experiment: Antitumor activity against mouse MLL-AF9 cells allografted in female C57BL/6 mouse model assessed as reduction in hepatomegaly at 50 mg/kg, ip administered once daily for 23 days; type: functional, organism-based; conditions: time 23.0 day
[12] = tested on: Acute myeloid leukemic cell; experiment: Induction of ferroptosis in human Acute myeloid leukemic cells assessed as upregulation of HMOX1 protein level at 2.5 to 10 uM by Western blot analysis; type: functional, cell-based; conditions: dose 2.5-10 µM
OCI-AML2 [13] = experiment: Induction of ferroptosis in human OCI-AML2 cells assessed as increase in ferrous ion accumulation at 100 uM incubated for 48 hrs by RhoNox-1 staining based flow cytometry analysis; type: functional, cell-based
OCI-AML2 [14] = experiment: Antiproliferative activity against human OCI-AML2 cells assessed as cell growth inhibition incubated for 2 days by CCK-8 assay; conditions: OCI-AML2, 48 h
U-937 [15] = experiment: Upregulation of Nrf2 transcription level in human U-937 cells by RNA-seq analysis; type: functional, cell-based
U-937 [16] = experiment: Induction of ferroptosis in human U-937 cells assessed as increase in ferrous ion accumulation at 5 uM incubated for 48 hrs by RhoNox-1 staining based flow cytometry analysis; type: functional, cell-based
U-937 [17] = experiment: Induction of cell apoptosis in human U-937 cells incubated for 48 hrs by Annexin V/DAPI staining based flow cytometry analysis; type: functional; conditions: dose 2.5-10 µM
[18] = Volume of distribution at steady state in ICR(CD-1) mouse at 5 mg/kg, iv treated up to 24 hrs by LC-MS/MS analysis; type: ADME, organism-based; conditions: in vivo, read-out: Vdss
MLL-AF9 [19] = experiment: Antitumor activity against mouse MLL-AF9 cells allografted in female C57BL/6 mouse model assessed as reduction in splenomegaly at 50 mg/kg, ip administered once daily for 23 days in presence of cytarabine; type: functional, organism-based; conditions: time 23.0 day
OCI-AML2 [20] = experiment: Induction of cell differentiation in human OCI-AML2 cells assessed as increase in CD11b expression at 5 uM incubated for 48 hrs by flow cytometry analysis; type: functional, cell-based
U-937 [21] = experiment: Upregulation of p62 […] level in human U-937 cells at 2.5 to 10 uM incubated for 48 hrs by Western blot analysis; type: functional, cell-based; conditions: dose 2.5-10 µM
OCI-AML2 [22] = experiment: Induction of ferroptosis in human OCI-AML2 cells assessed as increase in malondialdehyde level at 5 uM incubated for 48 hrs; type: functional, cell-based
U-937 [23] = experiment: Antitumor activity against human U-937 cells assessed as cell growth inhibition incubated for 2 days by CCK-8 assay; conditions: U-937, 48 h
U-937 [24] = experiment: Induction of cell differentiation in human U-937 cells assessed as increase in CD11b expression at 5 uM incubated for 48 hrs by flow cytometry analysis; type: functional, cell-based
[25] = Toxicity in female C57BL/6 mouse assessed as drug tolerance at 50 mg/kg, ip administered once daily; type: organism-based; conditions: in vivo
OCI-AML2 [26] = experiment: Induction of cell differentiation in human OCI-AML2 cells assessed as increase in CD14 expression at 5 uM incubated for 48 hrs by flow cytometry analysis; type: functional, cell-based
OCI-AML2 [27] = experiment: Induction of ferroptosis in human OCI-AML2 cells assessed as increase in lipid peroxidation accumulation at 100 uM incubated for 48 hrs by C11-BODIPY 581/591 staining based flow cytometry analysis; type: functional, cell-based
[28] = Toxicity in female C57BL/6 mouse assessed as increase in survival rate at 50 mg/kg, ip administered once daily by Kaplan Mayer survival analysis; type: organism-based; conditions: in vivo
[29] = Antitumor activity against mouse MLL-AF9 cells allografted in female C57BL/6 mouse model assessed as GFP positive leukemic cells in peripheral blood at 50 mg/kg, ip administered once daily for 26 days by FITC staining based analysis (reference value: 30.6 %); type: functional; conditions: time 26 day
[30] = tested on: Acute myeloid leukemic cell; experiment: Induction of ferroptosis in human Acute myeloid leukemic cells assessed as upregulation of GPX4 mRNA level by RT-qPCR analysis; type: functional, cell-based
U-937 [31] = experiment: Cytotoxicity against human U-937 cells assessed as cell growth inhibition at 5 uM incubated for 24 to 48 hrs by cell counting assay; type: functional, cell-based; conditions: time 24-48 hrs
[32] = tested on: Acute myeloid leukemic cell; experiment: Induction of ferroptosis in human Acute myeloid leukemic cells assessed as increase in ACSL4 level by Western blot analysis; type: functional, cell-based
OCI-AML-3 = experiment: Antiproliferative activity against human OCI-AML-3 cells assessed as cell growth inhibition incubated for 2 days by CCK-8 assay; conditions: OCI-AML-3, 48 h
[33] = Cmax in ICR(CD-1) mouse at 50 mg/kg, ip treated up to 24 hrs by LC-MS/MS analysis; type: ADME, organism-based; conditions: in vivo
[34] = MRT (0 to infinity) in ICR(CD-1) mouse at 50 mg/kg, ip treated up to 24 hrs by LC-MS/MS analysis; type: ADME, organism-based; conditions: in vivo
U-937 [35] = experiment: Induction of ferroptosis in human U-937 cells assessed as increase in cellular ROS level incubated for 48 hrs by DCFH-DA staining based flow cytometry analysis; type: functional, cell-based; conditions: dose 2.5-10 µM
U-937 [36] = experiment: Effect on MOAP1 gene expression in human U-937 cells at 10 uM incubated for 48 hrs by RT-qPCR; type: functional, cell-based
U-937 [37] = experiment: Induction of ferroptosis in human U-937 cells assessed as increase in malondialdehyde level at 5 uM incubated for 48 hrs in presence of ferrostatin-1; type: functional, cell-based

With `O=C(NO)c1cccc2[nH]c(C#Cc3cccc(C(F)(F)F)c3)cc12` the Activity [1] was about 20%, the Activity [2] was “Active” and the Activity (OCI-AML2 [3]) was “Active”. The Activity (U-937 [4]) was “Active”, the bioavailability [5] was 32% and the Activity (U-937 [6]) was “Active”. For the same molecule, the Activity (U-937 [7]) was “Active”, the IC50 (THP-1) was at most 10 µM and the Activity (U-937 [8]) was “Active; Partially Reversed Zinc Protoporphyrin Inhibition”. The Activity [9] was 4.3%, the Activity (OCI-AML2 [10]) was “Active” and the Activity (MLL-AF9 [11]) was “Active”. For the same molecule, the Activity [12] was “Active”, the Activity (OCI-AML2 [13]) was “Active” and the IC50 (OCI-AML2 [14]) was 8.07 µM. For the same molecule, the Activity (U-937 [15]) was “inactive”, the Activity (U-937 [16]) was “Active” and the Activity (U-937 [17]) was “Dose-dependent-effect”. For the same molecule, the Vd [18] was 10.2 L/kg, the Activity (MLL-AF9 [19]) was “Active” and the Activity (OCI-AML2 [20]) was “Active”. For the same molecule, the Activity (U-937 [21]) was “Active”, the Activity (OCI-AML2 [22]) was “Active” and the IC50 (U-937 [23]) was 9.66 µM. For the same molecule, the Activity (U-937 [24]) was “Active”, the Activity [25] was “Non-toxic” and the Activity (OCI-AML2 [26]) was “Active”. For the same molecule, the Activity (OCI-AML2 [27]) was “Active”, the Activity [28] was “Non-toxic” and the Activity [29] was 11.2%. The Activity [30] was “Active”, the Activity (U-937 [31]) was “Active” and the Activity [32] was “Active”. For the same molecule, the IC50 (OCI-AML-3) was at most 10 µM, the Cmax [33] was 2920 ng/mL and the MRT inf [34] was 6.03 h. The Activity (U-937 [35]) was “Dose-dependent-effect”, the Activity (U-937 [36]) was “Active” and the Activity (U-937 [37]) was “inactive”.
